Converted amounts (≈) assume the structure as drawn.
Columns and labels:
[1] = Cytotoxicity against human THP1 cells assessed as growth inhibition after 48 hrs by MTT assay; type: cell-based, THP-1; conditions: for GI50 at 48 h: THP1 cells; for GI90: thp-1, 48 h
[2] = Selectivity index, ratio of GI50 for human THP1 cells to MIC for dormant phase Mycobacterium tuberculosis H37Ra ATCC 25177; type: toxicity, cell-based, THP-1; conditions: read-out: Selectivity Index
[3] = Selectivity index, ratio of GI50 for human A549 cells to MIC for dormant phase Mycobacterium tuberculosis H37Ra ATCC 25177; type: toxicity, cell-based; conditions: read-out: Selectivity Index
[4] = Selectivity index, ratio of GI50 for human PANC1 cells to MIC for dormant phase Mycobacterium tuberculosis H37Ra ATCC 25177; type: toxicity, cell-based, PANC-1; conditions: read-out: Selectivity Index
[5] = system: Mycobacterium tuberculosis; assay: Antitubercular activity against dormant phase Mycobacterium tuberculosis H37Ra ATCC 25177 incubated for 12 days by XTT reduction menadione assay; type: functional, organism-based; conditions: 288 h
[6] = (§1) Cytotoxicity against human A549 cells assessed as growth inhibition after 48 hrs by MTT assay; type: cell-based; conditions: A549 cells
A549 = assay: as §1; type: cell-based; conditions: a549, 48 h
[7] = Cytotoxicity against human PANC1 cells assessed as growth inhibition after 48 hrs by MTT assay; type: cell-based, PANC-1; conditions: for GI50 at 48 h: PANC1 cells; for GI90: panc-1, 48 h
[8] = Antioxidant activity assessed as DPPH radical scavenging activity after 30 mins by spectrophotometric analysis; type: physicochemical

Row | SMILES | GI50 at 48 h [1] | GI90 [1] | selectivity ratio [2] | selectivity ratio [3] | selectivity ratio [4] | IC50 [5] | MIC [5] | GI50 at 48 h [6] | GI90 (A549) | GI50 at 48 h [7] | GI90 [7] | IC50 [8]
1 | Cc1ccc(OCc2cn(Cc3cccc(Cl)c3)nn2)cc1 | 36.7 µg/mL (≈ 117 µM) | 93.1 µg/mL (≈ 297 µM) | 1.3 | > 3.5 | > 3.5 | 3 µg/mL (≈ 9.56 µM) | 28.9 µg/mL (≈ 92.1 µM) | > 100 µg/mL | > 100 µg/mL | > 100 µg/mL | > 100 µg/mL | 16.3 µg/mL (≈ 51.9 µM)
2 | Clc1ccc(OCc2cn(Cc3ccc(Br)cc3)nn2)cc1 | 52.9 µg/mL (≈ 140 µM) | > 100 µg/mL | 9.2 | > 17.3 | > 17.3 | 0.5 µg/mL (≈ 1.32 µM) | 5.8 µg/mL (≈ 15.3 µM) | > 100 µg/mL | > 100 µg/mL | > 100 µg/mL | > 100 µg/mL | 11 µg/mL (≈ 29.1 µM)
3 | Clc1cccc(Cn2cc(COc3ccccc3)nn2)c1 | 14.6 µg/mL (≈ 48.7 µM) | 54.3 µg/mL (≈ 181 µM) | 0.5 | > 3.6 | > 3.6 | 2.4 µg/mL (≈ 8.01 µM) | 27.7 µg/mL (≈ 92.4 µM) | > 100 µg/mL | > 100 µg/mL | > 100 µg/mL | > 100 µg/mL | 27.3 µg/mL (≈ 91.1 µM)
4 | Cc1cc(OCc2cn(Cc3ccc(Br)cc3)nn2)ccc1Cl |  |  |  |  |  | 2.4 µg/mL (≈ 6.11 µM) | > 30 µg/mL |  |  |  |  | 16.5 µg/mL (≈ 42 µM)
5 | CC(=O)O[C@H]1C(=O)[C@@]2(C)[C@H]([C@H](OC(=O)c3ccccc3)[C@]3(O)C[C@H](OC(=O)[C@H](O)[C@@H](NC(=O)c4ccccc4)c4ccccc4)C(C)=C1C3(C)C)[C@]1(OC(C)=O)CO[C@@H]1C[C@@H]2O [PACLITAXEL] | 0.14 µg/mL (≈ 0.164 µM) | 5.82 µg/mL (≈ 6.82 µM) | > 2330 | > 2330 | > 2330 |  |  | 0.13 µg/mL (≈ 0.152 µM) | 5.72 µg/mL (≈ 6.7 µM) | 0.004 µg/mL (≈ 0.00468 µM) | 0.07 µg/mL (≈ 0.082 µM) | 
6 | Clc1ccc(OCc2cn(Cc3cccc(Cl)c3)nn2)cc1 | 20.9 µg/mL (≈ 62.5 µM) | > 100 µg/mL | 0.8 | > 3.9 | > 3.9 | 2.9 µg/mL (≈ 8.68 µM) | 25.8 µg/mL (≈ 77.2 µM) | > 100 µg/mL | > 100 µg/mL | > 100 µg/mL | > 100 µg/mL | 23.3 µg/mL (≈ 69.7 µM)
7 | O=[N+]([O-])c1cccc(OCc2cn(Cc3cccc(Cl)c3)nn2)c1 |  |  |  |  |  | 26.6 µg/mL (≈ 77.2 µM) | > 100 µg/mL |  |  |  |  | 31.2 µg/mL (≈ 90.5 µM)
8 | O=[N+]([O-])c1cccc(OCc2cn(Cc3ccc(Br)cc3)nn2)c1 |  |  |  |  |  | 43.2 µg/mL (≈ 111 µM) | > 100 µg/mL |  |  |  |  | 29.4 µg/mL (≈ 75.5 µM)
9 | Clc1cc(Cl)c(OCc2cn(Cc3ccc(Br)cc3)nn2)c(Cl)c1 | 58.7 µg/mL (≈ 131 µM) | > 100 µg/mL | 2.1 | > 3.6 | > 3.6 | 0.9 µg/mL (≈ 2.01 µM) | 27.8 µg/mL (≈ 62.1 µM) | > 100 µg/mL | > 100 µg/mL | > 100 µg/mL | > 100 µg/mL | 14 µg/mL (≈ 31.3 µM)
10 | Clc1cccc(Cn2cc(COc3c(Cl)cc(Cl)cc3Cl)nn2)c1 |  |  |  |  |  | 2.2 µg/mL (≈ 5.46 µM) | > 30 µg/mL |  |  |  |  | 16.4 µg/mL (≈ 40.7 µM)
11 | O=[N+]([O-])c1ccc(Cn2cc(COc3cccc([N+](=O)[O-])c3)nn2)cc1 |  |  |  |  |  | > 100 µg/mL | > 100 µg/mL |  |  |  |  | 17.1 µg/mL (≈ 48.1 µM)
12 | Cc1ccc(OCc2cn(Cc3ccc(Cl)cc3)nn2)cc1 | 74.1 µg/mL (≈ 236 µM) | > 100 µg/mL | 3.1 | > 4.1 | > 4.1 | 2.5 µg/mL (≈ 7.97 µM) | 24.2 µg/mL (≈ 77.1 µM) | > 100 µg/mL | > 100 µg/mL | > 100 µg/mL | > 100 µg/mL | 17.3 µg/mL (≈ 55.1 µM)
13 | O=[N+]([O-])c1cccc(Cn2cc(COc3ccc(Cl)cc3)nn2)c1 | 34.9 µg/mL (≈ 101 µM) | 97.6 µg/mL (≈ 283 µM) | 1.2 | > 3.4 | > 3.4 | 2.6 µg/mL (≈ 7.54 µM) | 29.2 µg/mL (≈ 84.7 µM) | > 100 µg/mL | > 100 µg/mL | > 100 µg/mL | > 100 µg/mL | 21.3 µg/mL (≈ 61.8 µM)
14 | Cc1ccc(OCc2cn(Cc3ccc(Br)cc3)nn2)cc1 |  |  |  |  |  | 7.8 µg/mL (≈ 21.8 µM) | > 30 µg/mL |  |  |  |  | 16.3 µg/mL (≈ 45.5 µM)
15 | O=[N+]([O-])c1ccc(OCc2cn(Cc3ccc(Br)cc3)nn2)c(I)c1 |  |  |  |  |  | 25 µg/mL (≈ 48.5 µM) | > 30 µg/mL |  |  |  |  | 18.5 µg/mL (≈ 35.9 µM)
16 | O=[N+]([O-])c1cccc(Cn2cc(COc3c(Cl)cc(Cl)cc3Cl)nn2)c1 |  |  |  |  |  | 2.6 µg/mL (≈ 6.29 µM) | > 30 µg/mL |  |  |  |  | 29.2 µg/mL (≈ 70.6 µM)
17 | Cc1cc(OCc2cn(Cc3ccc([N+](=O)[O-])cc3)nn2)ccc1Cl | 27.9 µg/mL (≈ 77.8 µM) | 84.3 µg/mL (≈ 235 µM) | 1 | > 3.6 | > 3.6 | 0.8 µg/mL (≈ 2.23 µM) | 28.2 µg/mL (≈ 78.6 µM) | > 100 µg/mL | > 100 µg/mL | > 100 µg/mL | > 100 µg/mL | 13.4 µg/mL (≈ 37.3 µM)
18 | O=[N+]([O-])c1cccc(OCc2cn(Cc3ccc(Cl)cc3)nn2)c1 |  |  |  |  |  | 53.4 µg/mL (≈ 155 µM) | > 100 µg/mL |  |  |  |  | 37.3 µg/mL (≈ 108 µM)
19 | Cc1cc(C(C)(C)C)c(O)c(C(C)(C)C)c1 [BUTYLATED HYDROXYTOLUENE] |  |  |  |  |  |  |  |  |  |  |  | 16.5 µg/mL (≈ 74.9 µM)
20 | Cc1ccc(OCc2cn(Cc3ccc([N+](=O)[O-])cc3)nn2)cc1 | 14.2 µg/mL (≈ 43.8 µM) | 66.4 µg/mL (≈ 205 µM) | 0.5 | > 3.3 | > 3.3 | 1.1 µg/mL (≈ 3.39 µM) | 29.9 µg/mL (≈ 92.2 µM) | > 100 µg/mL | > 100 µg/mL | > 100 µg/mL | > 100 µg/mL | 10.9 µg/mL (≈ 33.6 µM)
21 | Cc1ccc(OCc2cn(Cc3cccc([N+](=O)[O-])c3)nn2)cc1 |  |  |  |  |  | 2.4 µg/mL (≈ 7.4 µM) | > 30 µg/mL |  |  |  |  | 12.1 µg/mL (≈ 37.3 µM)
22 | O=[N+]([O-])c1ccc(Cn2cc(COc3c(Cl)cc(Cl)cc3Cl)nn2)cc1 |  |  |  |  |  | 2.2 µg/mL (≈ 5.32 µM) | > 30 µg/mL |  |  |  |  | 28.9 µg/mL (≈ 69.9 µM)
23 | O=[N+]([O-])c1cccc(Cn2cc(COc3cccc([N+](=O)[O-])c3)nn2)c1 |  |  |  |  |  | 8.3 µg/mL (≈ 23.4 µM) | > 30 µg/mL |  |  |  |  | 19.1 µg/mL (≈ 53.8 µM)
24 | O=[N+]([O-])c1cccc(Cn2cc(COc3ccccc3)nn2)c1 |  |  |  |  |  | 2.4 µg/mL (≈ 7.73 µM) | > 30 µg/mL |  |  |  |  | 25.3 µg/mL (≈ 81.5 µM)
25 | O=C1O[C@H]([C@@H](O)CO)C(O)=C1O [ASCORBIC ACID] |  |  |  |  |  |  |  |  |  |  |  | 12.7 µg/mL (≈ 72.1 µM)
26 | CO[C@H]1/C=C/O[C@@]2(C)Oc3c(C)c(O)c4c(O)c(c(/C=N/N5CCN(C)CC5)c(O)c4c3C2=O)NC(=O)/C(C)=C\C=C\[C@H](C)[C@H](O)[C@@H](C)[C@@H](O)[C@@H](C)[C@H](OC(C)=O)[C@@H]1C [RIFAMPIN] |  |  |  |  |  | 0.002 µg/mL (≈ 0.00243 µM) | 0.04 µg/mL (≈ 0.0486 µM) |  |  |  |  | 
27 | Cc1cc(OCc2cn(Cc3cccc([N+](=O)[O-])c3)nn2)ccc1Cl |  |  |  |  |  | 2.2 µg/mL (≈ 6.13 µM) | > 30 µg/mL |  |  |  |  | 15.6 µg/mL (≈ 43.5 µM)

Source: ChEMBL document CHEMBL3739373, “1,2,3-Triazole derivatives as antitubercular agents: synthesis, biological evaluation and molecular docking study” (Medchemcomm, 2015)
